Tests used:
[1] = system: panel of 300 recombinant human kinases; assay type: biochemical; conditions: 0.5 µM, panel of 300 kinases
[2] = system: osteoclastogenesis; conditions: via off-target actions on M-CSF signaling; cited from earlier work

Question: Which results are given for `COc1ccc(N2C(=O)N(c3c(C)cccc3Cl)Cc3cnc(Nc4ccc(C5CCN(C)CC5)cc4OC)nc32)nc1` [YKL-05-099]?
Answer: S(80): portion of kinases tested inhibited >80% [1]: 43/300; osteoclast maturation (in words) [2]: directly blocks osteoclast maturation

Source: paper PMC9897432 (Proceedings of the National Academy of Sciences of the …, 2022)
